From patent US20120165331A1, “Di/tri-aza-spiro-C9-C11alkanes” (priority 2010, published 2012)

Tests used:
human orexin 1 receptor = target: T1, human orexin 1 receptor (Homo sapiens, UniProt O43613); assay: Calcium accumulation in cells (FLIPR), antagonism of orexin A, human orexin 1 receptor; assay type: cell-based; details: for inhibition at 10 µM: measured at a concentration of 10 μM of compound, read-out: FLIPR hOx1R % inhibition; for Ki: calcium accumulation, antagonism of orexin A, Cheng-Prusoff corrected, read-out: FLIPR hOx1R Ki
T1 construct: expressed in transfected cells
T1 sequence (O43613 1-425): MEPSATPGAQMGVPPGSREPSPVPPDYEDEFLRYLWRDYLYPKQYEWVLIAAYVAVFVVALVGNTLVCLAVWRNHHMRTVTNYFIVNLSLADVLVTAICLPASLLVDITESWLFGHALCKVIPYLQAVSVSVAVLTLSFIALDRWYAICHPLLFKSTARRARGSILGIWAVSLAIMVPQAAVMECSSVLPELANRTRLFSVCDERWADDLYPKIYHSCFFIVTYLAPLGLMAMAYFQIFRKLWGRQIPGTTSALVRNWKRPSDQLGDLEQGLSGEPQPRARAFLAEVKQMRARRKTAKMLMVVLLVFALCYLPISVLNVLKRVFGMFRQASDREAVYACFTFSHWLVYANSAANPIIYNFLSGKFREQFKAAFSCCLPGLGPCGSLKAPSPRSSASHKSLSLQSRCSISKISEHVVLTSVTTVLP
Protocol: (§1) Calcium Accumulation in Cells (FLIPR):
(§2) Cells expressing human orexin 1 or human orexin 2 receptors, were seeded at 8,000 cells/well in 384 well black-walled clear bottom, poly-D-lysine coated plates. After 24 h, the medium was removed and cells were washed once with phosphate buffered saline and serum-deprived overnight in assay buffer (130 mM NaCl, 5.4 mM KCl, 1.8 mM CaCl2, 0.8 mM MgSO4, 0.9 mM NaH2PO4, 25 mM glucose, 20 mM HEPES, pH 7.4) containing bovine serum albumin (1% w/v).
(§3) On the day of the experiment, the cells seeded in black plates were treated with assay buffer containing the Ca^2+ sensitive fluorescent dye Fluo-4-AM (2 μM), and probenecid (0.1 mM). After 1 h plates were washed twice with, and resuspended in, assay buffer containing probenecid (0.1 mM) using a multi plate washer. The plates were placed into a FLIPR II (Fluorometric Imaging Plate Reader, Molecular Devices, Sunnyvale, Calif., USA) and baseline fluorescence (fluorescence light units, FLU) was measured (5 measurements, 2 S each; laser excitation 488 nm at 0.6-1 W, CCD camera exposure 0.4 s) before addition of buffer alone (basal) or containing test compounds (either compound of formula I alone, agonist alone or agonist in the presence of various concentrations of compounds of formula I). Fluorescence measurements were then continued every 1 S for 120 S followed by every 4 S for 240 S.
(§4) The measurements were typically made in two sequences:
(§5) Compounds of formula I were tested usually in a concentration range from 10^−9 M to 10^−5 M.
(§6) In the second round, performed one hour later (to allow for equilibration), Orexin A was tested either in the absence (calibration curves, Orexin A agonist controls) or in the presence of compounds of formula Ito determine antagonism.
(§7) Inhibition data is expressed in Table 1 as Kd [μM], converted by the Cheng and Prusoff correction (Kd=IC50/1+(L/EC50)), where IC50 is the 50% inhibition value determined in concentration response inhibition curves, EC50 is the half maximal activation concentration determined for orexin A in concentration response curves and L is the concentration of orexin A used in inhibition experiments performed in with a submaximal concentration of orexin A in the presence of up to 8 increasing concentrations of compound of formula I. Inhibition data is also expressed in Table 1 as % inhibition value measured at a concentration of 10 μM of selected compounds of formula I.

human orexin 2 receptor = target: T2, human orexin 2 receptor (Homo sapiens, UniProt O43614); assay: Calcium accumulation in cells (FLIPR), antagonism of orexin A, human orexin 2 receptor; assay type: cell-based; details: for inhibition at 10 µM: measured at a concentration of 10 μM of compound, read-out: FLIPR hOx2R % inhibition; for Ki: calcium accumulation, antagonism of orexin A, Cheng-Prusoff corrected, read-out: FLIPR hOx2R Ki
T2 construct: expressed in transfected cells
T2 sequence (O43614 1-444): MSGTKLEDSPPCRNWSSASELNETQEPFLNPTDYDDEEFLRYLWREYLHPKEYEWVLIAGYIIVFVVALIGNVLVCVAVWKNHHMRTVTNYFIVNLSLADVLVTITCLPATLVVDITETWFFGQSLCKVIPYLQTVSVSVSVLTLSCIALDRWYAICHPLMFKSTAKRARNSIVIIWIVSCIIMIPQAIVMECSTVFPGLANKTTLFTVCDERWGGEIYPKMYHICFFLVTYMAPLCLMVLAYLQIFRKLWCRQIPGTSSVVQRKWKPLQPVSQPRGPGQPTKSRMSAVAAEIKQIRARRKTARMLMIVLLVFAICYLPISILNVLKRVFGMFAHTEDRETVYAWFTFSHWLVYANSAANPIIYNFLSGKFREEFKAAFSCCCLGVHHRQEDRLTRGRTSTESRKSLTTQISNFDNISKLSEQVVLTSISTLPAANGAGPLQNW
Protocol: as §1, §2, §3, §4, §5, §6, §7

| SMILES | inhibition at 10 µM (human orexin 1 receptor) [%] | inhibition at 10 µM (human orexin 2 receptor) [%] | Ki (human orexin 1 receptor) [nM] | Ki (human orexin 2 receptor) [nM] |
| --- | --- | --- | --- | --- |
| Cc1cc(C)nc(N2CCC3(CC2)NCCN(Cc2nn(C)cc2-c2ccc(C#N)cc2)C3=O)n1 [Example 1.45, 4-(3-((9-(4,6-Dimethylpyrimidin-2-yl)-5-oxo-1,4,9-triazaspiro[5.5]undecan-4-yl)methyl)-1-methyl-1H-pyrazol-4-yl)benzonitrile] | 21 | 45 | – | – |
| CNC(=O)c1cccc(-c2cn(C)nc2CN2CCNC3(CCN(c4nc(C)cc(C)n4)CC3)C2=O)c1 [Example 1.49, 3-(3-((9-(4,6-Dimethylpyrimidin-2-yl)-5-oxo-1,4,9-triazaspiro[5.5]undecan-4-yl)methyl)-1-methyl-1H-pyrazol-4-yl)-N-methylbenzamide] | 20 | 38 | – | – |
| Cc1cc(C)nc(N2CCC3(CC2)NCCN(Cc2n[nH]c4ccccc24)C3=O)n1 [Example 1.50, 4-((1H-Indazol-3-yl)methyl)-9-(4,6-dimethylpyrimidin-2-yl)-1,4,9-triazaspiro[5.5] undecan-5-one] | – | – | 1180 | 86 |
| COCc1ccc(-c2cn(C)nc2CN2CCNC3(CCN(c4nc(C)cc(C)n4)CC3)C2=O)cc1 [Example 1.51, 9-(4,6-Dimethyl-pyrimidin-2-yl)-4-((4-(4-(methoxymethyl)phenyl)-1-methyl-1H-pyrazol-3-yl)methyl)-1,4,9-triazaspiro[5.5] undecan-5-one] | < 10 | – | – | 1240 |
| COc1cccc(-c2cn(C)nc2CN2CCNC3(CCN(c4nc(C)cc(C)n4)CC3)C2=O)n1 [Example 1.54, 9-(4,6-Dimethyl-pyrimidin-2-yl)-4-((4-(6-methoxypyridin-2-yl)-1-methyl-1H-pyrazol-3-yl)methyl)-1,4,9-triazaspiro[5.5] undecan-5-one] | 15 | 32 | – | – |
| Cc1cc(C)nc(N2CCC3(CC2)NCCN(Cc2nn(C)cc2-c2cccc(-n4cccn4)c2)C3=O)n1 [Example 1.57, 4-((4-(3-(1H-Pyrazol-1-yl)phenyl)-1-methyl-1H-pyrazol-3-yl)methyl)-9-(4,6-dimethyl-pyrimidin-2-yl)-1,4,9-triazaspiro[5.5] undecan-5-one] | – | – | 2670 | 175 |
| Cc1cc(C)nc(N2CCC3(CC2)NCCN(Cc2nn(C)cc2-c2cccc(N(C)C)c2)C3=O)n1 [Example 1.58] | 17 | – | – | 458 |
| Cc1cc(C)nc(N2CCC3(CC2)NCCN(Cc2nn(C)cc2-c2cccc(-c4nnc(C)o4)c2)C3=O)n1 [Example 1.59, 9-(4,6-Dimethyl-pyrimidin-2-yl)-4-((1-methyl-4-(3-(5-methyl-1,3,4-oxadiazol-2-yl)phenyl)-1H-pyrazol-3-yl)methyl)-1,4,9-triazaspiro[5.5] undecan-5-one] | 37 | – | – | 252 |
| Cc1cc(C)nc(N2CCC3(CC2)NCCN(Cc2nn(C)cc2-c2cccc(-n4nc(C)cc4C)c2)C3=O)n1 [Example 1.60, 4-((4-(3-(3,5-Dimethyl-1H-pyrazol-1-yl)phenyl)-1-methyl-1H-pyrazol-3-yl)methyl)-9-(4,6-dimethylpyrimidin-2-yl)-1,4,9-triazaspiro[5.5] undecan-5-one] | 13 | 34 | – | – |
| Cc1cc(C)nc(N2CCC3(CC2)NCCN(Cc2nn(C)cc2-c2ccc4c(c2)OCCO4)C3=O)n1 [Example 1.61, 4-((4-(2,3-Dihydro-benzo[b][1,4]dioxin-6-yl)-1-methyl-1H-pyrazol-3-yl)methyl)-9-(4,6-dimethylpyrimidin-2-yl)-1,4,9-triazaspiro[5.5] undecan-5-one] | – | – | 836 | 1.8 |
| Cc1cc(C)nc(N2CCC3(CC2)NCCN(Cc2ccccc2-c2ncc(C)o2)C3=O)n1 [Example 1.64, 9-(4,6-dimethyl-pyrimidin-2-yl)-4-(2-(5-methyloxazol-2-yl)benzyl)-1,4,9-triazaspiro[5.5] undecan-5-one] | 32 | – | – | 423 |
| COc1nc(C)cc(N2CCC3(CC2)NCCN(Cc2c[nH]c4ccccc24)C3=O)n1 [Example 1.66, 4-((1H-indol-3-yl)methyl)-9-(2-methoxy-6-methyl-pyrimidin-4-yl)-1,4,9-triazaspiro[5.5] undecan-5-one] | – | – | 3920 | 632 |
| Cc1cc(C)nc(N2CCC3(CC2)NCCN(Cc2ccccc2-c2nc(C)no2)C3=O)n1 [Example 1.69, 9-(4,6-dimethyl-pyrimidin-2-yl)-4-(2-(3-methyl-1,2,4-oxadiazol-5-yl)benzyl)-1,4,9-triazaspiro[5.5] undecan-5-one] | 13 | – | – | 235 |
| CCc1cc(-c2nn(C)nc2CN2CCNC3(CCN(c4nc(C)cc(C)n4)CC3)C2=O)ccn1 [Example 1.75, 9-(4,6-dimethyl-pyrimidin-2-yl)-4-((5-(2-ethyl-pyridin-4-yl)-2-methyl-2H-1,2,3-triazol-4-yl)methyl)-1,4,9-triazaspiro[5.5] undecan-5-one] | < 10 | 35 | – | – |
| Cc1cc(C)nc(N2CCC3(CC2)NCCN(Cc2nocc2-c2ccccc2)C3=O)n1 [Example 1.81, 9-(4,6-dimethyl-pyrimidin-2-yl)-4-((4-phenyl-isoxazol-3-yl)methyl)-1,4,9-triazaspiro[5.5] undecan-5-one] | 33 | – | – | 2190 |
| Cc1cc(C)nc(N2CCC3(CC2)NCCN(Cc2conc2-c2ccccc2)C3=O)n1 [Example 1.82, 9-(4,6-dimethyl-pyrimidin-2-yl)-4-((3-phenyl-isoxazol-4-yl)methyl)-1,4,9-triazaspiro[5.5] undecan-5-one] | 57 | – | – | 655 |
| Cc1cc(C)nc(N2CCC3(CC2)NCCN(Cc2nn(C)nc2-c2ccccc2)C3=O)n1 [Example 1.83, 9-(4,6-dimethyl-pyrimidin-2-yl)-4-((2-methyl-5-phenyl-2H-1,2,3-triazol-4-yl)methyl)-1,4,9-triazaspiro[5.5] undecan-5-one] | – | – | 4450 | 240 |
| Cc1cc(C)nc(N2CCC3(CC2)OCCN(Cc2ccccc2-c2ccco2)C3=O)n1 [Example 2.3, 9-(4,6-Dimethyl-pyrimidin-2-yl)-4-(2-furan-2-yl-benzyl)-1-oxa-4,9-diaza-spiro[5.5]undecan-5-one] | – | – | 1100 | 142 |
| COc1ccnc(N2CCC3(CC2)OCCN(Cc2c[nH]c4ccccc24)C3=O)n1 [Example 2.5, 4-((1H-Indol-3-yl)methyl)-9-(4-methoxypyrimidin-2-yl)-1-oxa-4,9-diazaspiro[5.5]undecan-5-one] | – | – | 1550 | 61 |
| Cc1cc(C)nc(N2CCC3(CC2)OCCN(Cc2ccccc2-c2ncco2)C3=O)n1 [Example 2.9, 9-(4,6-Dimethylpyrimidin-2-yl)-4-(2-(oxazol-2-yl)benzyl)-1-oxa-4,9-diazaspiro[5.5]undecan-5-one] | 42 | – | – | 659 |
